Assay results published in PubChem BioAssay AID1963423 (Molecular Pharmacology Branch, DTP, NCI, 2024).

Tested on: 439559-082-T-J2-PDC complex spheroid growth
Test: Anticancer human tumor 439559-082-T-J2-PDC patient-derived colon adenocarcinoma cell line growth inhibition [Asc]
Settings: for IC50: curve of first compound; for viability, T/C: stronger effect = lower value
Experimental: Multicellular complex tumor spheroid response to apoptosis pathway targeting inhibitors Alrizomadlin, Pelcitoclax, and Dasminapant in combination with a variety of drugs and investigational agents in selected tumor cell lines
The MDM2 inhibitor alrizomadlin, the Bcl-2/Bcl-xL inhibitor pelcitoclax, and the IAPs inhibitor dasminapant were evaluated both individually and in combination with standard of care and investigational anticancer small molecules within a complex spheroid model of solid tumors. . Complex spheroids include a stromal component modeled by human endothelial cells (HUVEC) and fibroblasts modeled by human mesenchymal stem cells (MSCs). The concentration ranges selected for each drug and investigational agent were based upon clinically achievable concentrations if the clinical Cmax of the agent was known.
Compounds. The drugs and investigational agents: alrizomadlin (APG-115; NSC831270), pelcitoclax (APG-1252; NSC835773), dasminapant (APG-1387;NSC834197), TAK-243 (NSC785004), copanlisib (NSC809693), olaparib (NSC753686), talazoparib (NSC767125), cobimetinib (NSC 768068), eltanexor (KPT-8602, NSC 794443), abemaciclib (NSC 768073), sotorasib (NSC818433), adagrasib (NSC 831453), MRTX-1133 (NSC 836407), Iadademestat (ORY1001, NSC 806812), and RMC-4630 (NSC839698), were obtained from the NCI Developmental Therapeutics Program Chemical Repository. The FDA-approved anticancer drug set is available from the Developmental Therapeutics Program at https://dtp.cancer.gov/organization/dscb/obtaining/available plates.htm. […] The stock solutions were prepared in dimethyl sulfoxide (DMSO, Sigma-Aldrich, St. Louis, MO, cat. D2650) at 800-fold the tested concentration and stored at -70 degrees C prior to their use. All drugs and investigational agents were tested over a range starting from a high concentration at or near the clinical Cmax and decreasing in half-log increments. If the clinical Cmax for an agent had not been determined, the highest concentration tested was 10 microM.
The patient-derived cancer (PDC) cell lines include five colon adenocarcinomas: 186277-243-T-J2-PDC, 616215-338-R-J1-PDC, 439559-082-T-J2-PDC, 463943-066-T-J2-PDC, and 519858-162-T-J1-PDC; three pancreatic carcinomas: 323965-272-R-J2-PDC, 521955-158-R6-J3-PDC, and 521955-158-R2-J5-PDC; two uterine sarcomas: 327498-152-R-J2-PDC and 993429-296-R-J1-PDC; two rhabdomyosarcomas: 755483-174-R-J1-PDC and 772245-204-R-J1-PDC; two soft tissue sarcomas: 126254-015-R-J1-PDC and 494315-158-R-J1-PDC; two malignant fibrous histiocytomas: 317291-083-R-J1-PDC and 596521-263-R-J1-PDC; two breast carcinomas: 171881-019-R-J1-PDC and 885512-296-R-J2-PDC; and one ovarian carcinoma: 6556581-035-R-J-PDC were obtained from the NCI PDMR, (https://pdmr.cancer.gov). The established cell lines HSSY-2 synovial sarcoma (RRID:CVCL 8719), SYO-1 synovial sarcoma (RRID:CVCL_7146), MPNST malignant peripheral neural sheath tumor were obtained from the Sloan Kettering Institute. The following established cell lines were purchased from the American Type Culture Collection (ATCC, Manassas, VA), Sor the received from the NCI repository:, PANC-1 pancreatic carcinoma (CRL-1469, RRID:CVCL_0480), OVCAR-5 ovarian carcinoma (RRID:CVCL_1628), OVCAR-8 ovarian carcinoma (RRID:CVCL_1629), , MCF-7 breast carcinoma (CRL-12584, RRID:CVCL_0031), MDA-MB-231 breast carcinoma (CRL-12532, RRID:CVCL_0062), NCI-H1876 small cell lung carcinoma (CRL-5902, RRID:CVCL_1503), NCI-H510A small cell lung carcinoma (HTB-184, RRID:CVCL_1565), NCI-H1417 (CRL-5869, RRID:CVCL_1469), and NCI-H196 small cell lung carcinoma (CRL-5823, RRID:CVCL_1509). Dr. Peter Houghton (Greehey Children's Cancer Research Institute, University of Texas Health Science Center, San Antonio, TX) provided Rh-18 rhabdomyosarcoma (RRID:CVCL_1659). Pooled donor human umbilical vein endothelial cells (HUVEC, Lonza, cat. CC-2519) and human mesenchymal stem cells (hMSC, Lonza, cat. PT-2501) were purchased from Lonza (Walkersville, MD).
Cell Culture. […]

[1] = second compound 0.03 µM, first compound 0.00316 µM
[2] = second compound 0.03 µM, first compound 0.01 µM
[3] = second compound 0.03 µM, first compound 0.0316 µM
[4] = second compound 0.03 µM, first compound 0.1 µM
[5] = second compound 0.0949 µM, first compound 0.00316 µM
[6] = second compound 0.0949 µM, first compound 0.01 µM
[7] = second compound 0.0949 µM, first compound 0.0316 µM
[8] = second compound 0.0949 µM, first compound 0.1 µM
[9] = second compound 0.3 µM, first compound 0.00316 µM
[10] = second compound 0.3 µM, first compound 0.01 µM
[11] = second compound 0.3 µM, first compound 0.0316 µM
[12] = second compound 0.3 µM, first compound 0.1 µM
[13] = second compound 0.949 µM, first compound 0.00316 µM
[14] = second compound 0.949 µM, first compound 0.01 µM
[15] = second compound 0.949 µM, first compound 0.0316 µM
[16] = second compound 0.949 µM, first compound 0.1 µM
[17] = second compound 3 µM, first compound 0.00316 µM
[18] = second compound 3 µM, first compound 0.01 µM
[19] = second compound 3 µM, first compound 0.0316 µM
[20] = second compound 3 µM, first compound 0.1 µM
[21] = second compound 0.03 µM, first compound 0.316 µM
[22] = second compound 0.03 µM, first compound 1 µM
[23] = second compound 0.0949 µM, first compound 0.316 µM
[24] = second compound 0.0949 µM, first compound 1 µM
[25] = second compound 0.3 µM, first compound 0.316 µM
[26] = second compound 0.3 µM, first compound 1 µM
[27] = second compound 0.949 µM, first compound 0.316 µM
[28] = second compound 0.949 µM, first compound 1 µM
[29] = second compound 3 µM, first compound 0.316 µM
[30] = second compound 3 µM, first compound 1 µM
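Note: spheroids exposed to agents for 7 days starting day 3 after seeding.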
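Throughout, for viability, T/C: percent of DMSO vehicle control viability with 100% = vehicle.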

Cn1ncnc1[C@H]1c2n[nH]c(=O)c3cc(F)cc(c23)N[C@@H]1c1ccc(F)cc1 + CCN1C(C(=O)NC23CCC(C(=O)O)(CC2)CC3)C(c2cccc(Cl)c2F)C2(C(=O)Nc3cc(Cl)ccc32)C12CCCCC2
IC50 (second compound 0.03 µM): > 100 nM | IC50 (second compound 0.0949 µM): > 100 nM | IC50 (second compound 0.3 µM): > 100 nM | IC50 (second compound 0.949 µM): > 100 nM | IC50 (second compound 3 µM): > 100 nM | viability, T/C (second compound 0.03 µM, first compound 0.000316 µM): 106% | viability, T/C (second compound 0.03 µM, first compound 0.001 µM): 109% | viability, T/C [1]: 103% | viability, T/C [2]: 100% | viability, T/C [3]: 101% | viability, T/C [4]: 95.3% | viability, T/C (second compound 0.0949 µM, first compound 0.000316 µM): 103% | viability, T/C (second compound 0.0949 µM, first compound 0.001 µM): 104% | viability, T/C [5]: 106% | viability, T/C [6]: 83.4% | viability, T/C [7]: 94.6% | viability, T/C [8]: 96.6% | viability, T/C (second compound 0.3 µM, first compound 0.000316 µM): 98.8% | viability, T/C (second compound 0.3 µM, first compound 0.001 µM): 113% | viability, T/C [9]: 109% | viability, T/C [10]: 86.2% | viability, T/C [11]: 96.2% | viability, T/C [12]: 101% | viability, T/C (second compound 0.949 µM, first compound 0.000316 µM): 107% | viability, T/C (second compound 0.949 µM, first compound 0.001 µM): 111% | viability, T/C [13]: 108% | viability, T/C [14]: 99% | viability, T/C [15]: 88.3% | viability, T/C [16]: 103% | viability, T/C (second compound 3 µM, first compound 0.000316 µM): 89% | viability, T/C (second compound 3 µM, first compound 0.001 µM): 94.7% | viability, T/C [17]: 101% | viability, T/C [18]: 86.6% | viability, T/C [19]: 84.4% | viability, T/C [20]: 91.6%

O=C(c1cc(Cc2n[nH]c(=O)c3ccccc23)ccc1F)N1CCN(C(=O)C2CC2)CC1 + CCN1C(C(=O)NC23CCC(C(=O)O)(CC2)CC3)C(c2cccc(Cl)c2F)C2(C(=O)Nc3cc(Cl)ccc32)C12CCCCC2
IC50 (second compound 0.03 µM): > 10000 nM | IC50 (second compound 0.0949 µM): > 10000 nM | IC50 (second compound 0.3 µM): > 10000 nM | IC50 (second compound 0.949 µM): > 10000 nM | IC50 (second compound 3 µM): > 10000 nM | viability, T/C [3]: 106% | viability, T/C [4]: 103% | viability, T/C [21]: 105% | viability, T/C [22]: 87.5% | viability, T/C (second compound 0.03 µM, first compound 3.16 µM): 97.1% | viability, T/C (second compound 0.03 µM, first compound 10 µM): 87.8% | viability, T/C [7]: 104% | viability, T/C [8]: 113% | viability, T/C [23]: 104% | viability, T/C [24]: 96.5% | viability, T/C (second compound 0.0949 µM, first compound 3.16 µM): 93.4% | viability, T/C (second compound 0.0949 µM, first compound 10 µM): 100% | viability, T/C [11]: 99.5% | viability, T/C [12]: 112% | viability, T/C [25]: 111% | viability, T/C [26]: 85% | viability, T/C (second compound 0.3 µM, first compound 3.16 µM): 91% | viability, T/C (second compound 0.3 µM, first compound 10 µM): 94.9% | viability, T/C [15]: 109% | viability, T/C [16]: 107% | viability, T/C [27]: 113% | viability, T/C [28]: 89.6% | viability, T/C (second compound 0.949 µM, first compound 3.16 µM): 90.4% | viability, T/C (second compound 0.949 µM, first compound 10 µM): 94.9% | viability, T/C [19]: 90.5% | viability, T/C [20]: 100% | viability, T/C [29]: 104% | viability, T/C [30]: 86.7% | viability, T/C (second compound 3 µM, first compound 3.16 µM): 88.6% | viability, T/C (second compound 3 µM, first compound 10 µM): 88.8%

O=C(c1ccc(F)c(F)c1Nc1ccc(I)cc1F)N1CC(O)([C@@H]2CCCCN2)C1 + CCN1C(C(=O)NC23CCC(C(=O)O)(CC2)CC3)C(c2cccc(Cl)c2F)C2(C(=O)Nc3cc(Cl)ccc32)C12CCCCC2
IC50 (second compound 0.03 µM): 223 nM | IC50 (second compound 0.0949 µM): 233 nM | IC50 (second compound 0.3 µM): 235 nM | IC50 (second compound 0.949 µM): 172 nM | IC50 (second compound 3 µM): 97.6 nM | viability, T/C [1]: 103% | viability, T/C [2]: 101% | viability, T/C [3]: 83.8% | viability, T/C [4]: 61.6% | viability, T/C [21]: 46.9% | viability, T/C [22]: 22.5% | viability, T/C [5]: 111% | viability, T/C [6]: 106% | viability, T/C [7]: 84.8% | viability, T/C [8]: 58.2% | viability, T/C [23]: 52.6% | viability, T/C [24]: 16.3% | viability, T/C [9]: 98.7% | viability, T/C [10]: 110% | viability, T/C [11]: 91.7% | viability, T/C [12]: 64.3% | viability, T/C [25]: 47.2% | viability, T/C [26]: 8.43% | viability, T/C [13]: 111% | viability, T/C [14]: 93.5% | viability, T/C [15]: 88.4% | viability, T/C [16]: 54.5% | viability, T/C [27]: 41.1% | viability, T/C [28]: 16.2% | viability, T/C [17]: 96.8% | viability, T/C [18]: 81.7% | viability, T/C [19]: 78.1% | viability, T/C [20]: 47% | viability, T/C [29]: 27% | viability, T/C [30]: 12.2%
